Source: patent US8450317B2, “CXCR3 receptor antagonists” (Boehringer Ingelheim International GmbH, priority 2009, dated 2013)

Molecular target: CXCR3 (Macaca fascicularis, UniProt A0A2K5UV19)
Experiment: functional cellular assay measuring calcium flux in CXCR3 transfected cells (block of CXCR3/IP-10 interaction)
Format: cell-based, Cyno
Details: IP-10 induced intracellular calcium flux; Cyno-CHO cells stably expressing recombinant CXCR3 and G-alpha-16; IP-10 at EC80; read-out: IC50
Summary of the method: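 Cyno-CHO cells stably expressing CXCR3 and G-alpha-16, loaded with Ca-4 dye in HBSS/10 mM HEPES pH 7.4 with 2 mM probenecid for 1 h at 37° C. Compound (final 10 microM) preincubated 15 min at room temperature, then IP-10 at EC80 added; calcium flux read at 480/540 nm.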

CXCR3, sequence (A0A2K5UV19 entry or part of it): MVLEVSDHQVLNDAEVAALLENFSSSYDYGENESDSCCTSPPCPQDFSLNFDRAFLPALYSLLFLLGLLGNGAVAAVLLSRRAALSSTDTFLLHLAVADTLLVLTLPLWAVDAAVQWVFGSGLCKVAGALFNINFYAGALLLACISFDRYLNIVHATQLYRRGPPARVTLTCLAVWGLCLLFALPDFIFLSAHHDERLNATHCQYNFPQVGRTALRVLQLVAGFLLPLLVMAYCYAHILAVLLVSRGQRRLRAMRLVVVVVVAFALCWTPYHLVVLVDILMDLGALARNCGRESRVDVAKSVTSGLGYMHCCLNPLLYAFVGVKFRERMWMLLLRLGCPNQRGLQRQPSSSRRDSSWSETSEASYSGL

SMILES | IC50 [nM]
Cc1cc(C)n(CC(=O)N2CCN(c3ccccc3-c3ccc4ccn(C)c4c3)CC2)n1 [2-(3,5-Dimethyl-pyrazol-1-yl)-1-{4-[2-(1-methyl-1H-indol-6-yl)-phenyl]-piperazin-1-yl}-ethanone] | 19
COc1ncc(-c2ccccc2N2CCN(C(=O)Cn3ncc4ccccc43)CC2)cn1 [2-Indazol-1-yl-1-{4-[2-(2-methoxy-pyrimidin-5-yl)-phenyl]-piperazin-1-yl}-ethanone] | 35
C[C@@H]1CN(c2ccc(F)cc2C(=O)Nc2nc3c(s2)CN(C)CC3)CCN1C(=O)Cn1c(=O)[nH]c2ccccc21 [5-fluoro-2-{(3R)-3-methyl-4-[(2-oxo-2,3-dihydro-1H-benzimidazol-1-yl)acetyl]piperazin-1-yl}-N-(5-methyl-4,5,6,7-tetrahydro[1,3]thiazolo[5,4-c]pyridin-2-yl)benzamide] | 18
COc1ncc(-c2ccccc2N2CCN(C(=O)Cn3nc(C)cc3C)CC2)cn1 [2-(3,5-Dimethyl-pyrazol-1-yl)-1-{4-[2-(2-methoxy-pyrimidin-5-yl)-phenyl]-piperazin-1-yl}-ethanone] | 46
O=C(Cn1c(=O)[nH]c2ccccc21)N1CCN(c2ccc(F)cc2-c2cnc(N3CCC(O)CC3)nc2)CC1 [1-[2-(4-{4-fluoro-2-[2-(4-hydroxypiperidin-1-yl)pyrimidin-5-yl]phenyl}piperazin-1-yl)-2-oxoethyl]-1,3-dihydro-2H-benzimidazol-2-one] | 8
O=C(Cn1ccc2cccnc21)N1CCN(c2ccccc2-c2ccnc(N3CCOCC3)c2)CC1 [1-{4-[2-(2-Morpholin-4-yl-pyridin-4-yl)-phenyl]-piperazin-1-yl}-2-pyrrolo[2,3-b]pyridin-1-yl-ethanone] | 16
CC1CN(c2ccc(C(F)(F)F)cc2-c2cnc(N3CCC(O)CC3)nc2)CCN1C(=O)CN1CCCCC1=O (stereo not drawn) [1-[2-(4-{2-[2-(4-hydroxypiperidin-1-yl)pyrimidin-5-yl]-4-(trifluoromethyl)phenyl}-2-methylpiperazin-1-yl)-2-oxoethyl]piperidin-2-one] | 11
Cc1cc(C)n(CC(=O)N2CCN(c3ccccc3-c3cnc(N4CCC(C(N)=O)CC4)nc3)CC2)n1 [1-[5-(2-{4-[2-(3,5-Dimethyl-pyrazol-1-yl)-acetyl]-piperazin-1-yl}-phenyl)-pyrimidin-2-yl]-piperidine-4-carboxylic acid amide] | 6
Cc1cc(C)n(CC(=O)N2CCN(c3ccccc3-c3cnc(N4CCC(C)(C)CC4)nc3)CC2)n1 [1-(4-{2-[2-(4,4-Dimethyl-piperidin-1-yl)-pyrimidin-5-yl]-phenyl}-piperazin-1-yl)-2-(3,5-dimethyl-pyrazol-1-yl)-ethanone] | 12
O=C(Cn1c(=O)[nH]c2ccccc21)N1CCN(c2ccccc2-c2ccccc2)CC1 [1-[2-(4-Biphenyl-2-yl-piperazin-1-yl)-2-oxo-ethyl]-1,3-dihydro-benzoimidazol-2-one] | 140

Now from value to compound:

IC50 [nM] | SMILES
6 | CNc1ncc(-c2cc(Cl)ccc2N2CCN(C(=O)Cn3ccc4cccnc43)CC2)cn1 [1-{4-[4-Chloro-2-(2-methylamino-pyrimidin-5-yl)-phenyl]-piperazin-1-yl}-2-pyrrolo[2,3-b]pyridin-1-yl-ethanone]
6 | COc1ncc(-c2ccccc2N2CCN(C(=O)Cn3ccc4cccnc43)CC2)cn1 [1-{4-[2-(2-Methoxy-pyrimidin-5-yl)-phenyl]-piperazin-1-yl}-2-pyrrolo[2,3-b]pyridin-1-yl-ethanone]
20 | C[C@@H]1CN(c2ccc(F)cc2C(=O)Nc2nc3c(s2)CN(C)CC3)CCN1C(=O)Cn1ccc2cccnc21 [5-fluoro-2-[(3R)-3-methyl-4-(1H-pyrrolo[2,3-b]pyridin-1-ylacetyl)piperazin-1-yl]-N-(5-methyl-4,5,6,7-tetrahydro[1,3]thiazolo[5,4-c]pyridin-2-yl)benzamide]
7 | CC1CN(c2ccc(C(F)(F)F)cc2-c2cnc(N3CCC(S(C)(=O)=O)CC3)nc2)CCN1C(=O)CN1Cc2ccccc2C1=O (stereo not drawn) [2-(2-{2-methyl-4-[2-{2-[4-(methylsulfonyl)piperidin-1-yl]pyrimidin-5-yl}-4-(trifluoromethyl)phenyl]piperazin-1-yl}-2-oxoethyl)-2,3-dihydro-1H-isoindol-1-one]
9 | Cc1cc(C)n(CC(=O)N2CCN(c3ccccc3-c3cnc(N4CCC(S(C)(=O)=O)CC4)nc3)CC2C)n1 (stereo not drawn) [2-(3,5-dimethyl-1H-pyrazol-1-yl)-1-[2-methyl-4-(2-{2-[4-(methylsulfonyl)piperidin-1-yl]pyrimidin-5-yl}phenyl)piperazin-1-yl]ethanone]
9 | CC1CN(c2ccccc2-c2cnc(N3CCC(S(C)(=O)=O)CC3)nc2)CCN1C(=O)Cn1ccc2cccnc21 (stereo not drawn) [1-[2-methyl-4-(2-{2-[4-(methylsulfonyl)piperidin-1-yl]pyrimidin-5-yl}phenyl)piperazin-1-yl]-2-(1H-pyrrolo[2,3-b]pyridin-1-yl)ethanone]
30 | CC1CN(c2ccc(C(F)(F)F)cc2-c2cnc(S(C)(=O)=O)nc2)CCN1C(=O)Cn1ccc2cccnc21 (stereo not drawn) [1-(2-methyl-4-{2-[2-(methylsulfonyl)pyrimidin-5-yl]-4-(trifluoromethyl)phenyl}piperazin-1-yl)-2-(1H-pyrrolo[2,3-b]pyridin-1-yl)ethanone]
5 | N#Cc1ccc(-c2ccccc2N2CCN(C(=O)Cn3ccc4cccnc43)CC2)cn1 [5-{2-[4-(2-Pyrrolo[2,3-b]pyridin-1-yl-acetyl)-piperazin-1-yl]-phenyl}-pyridine-2-carbonitrile]
13 | Cc1cc(C)n(CC(=O)N2CCN(c3ccccc3-c3cnc(N4CCC(O)CC4)nc3)CC2C)n1 (stereo not drawn) [2-(3,5-dimethyl-1H-pyrazol-1-yl)-1-(4-{2-[2-(4-hydroxypiperidin-1-yl)pyrimidin-5-yl]phenyl}-2-methylpiperazin-1-yl)ethanone]
15 | COc1ncc(-c2ccccc2N2CCN(C(=O)Cn3cnc4cccnc43)CC2)cn1 [2-Imidazo[4,5-b]pyridin-3-yl-1-{4-[2-(2-methoxy-pyrimidin-5-yl)-phenyl]-piperazin-1-yl}-ethanone]
13 | COc1cc(NC(=O)c2cc(F)ccc2N2CCN(C(=O)CN3Cc4ccccc4C3=O)[C@@H](C)C2)ccn1 [5-fluoro-N-(2-methoxypyridin-4-yl)-2-{(3S)-3-methyl-4-[(1-oxo-1,3-dihydro-2H-isoindol-2-yl)acetyl]piperazin-1-yl}benzamide]
48 | CC1CN(c2ccc(F)cc2-c2cnc(S(C)(=O)=O)nc2)CCN1C(=O)Cn1ccc2cccnc21 (stereo not drawn) [1-(4-{4-fluoro-2-[2-(methylsulfonyl)pyrimidin-5-yl]phenyl}-2-methylpiperazin-1-yl)-2-(1H-pyrrolo[2,3-b]pyridin-1-yl)ethanone]
4 | CSc1ncc(-c2cc(C#N)ccc2N2CCN(C(=O)Cn3ccc4cccnc43)CC2)cn1 [3-(2-Methylsulfanyl-pyrimidin-5-yl)-4-[4-(2-pyrrolo[2,3-b]pyridin-1-yl-acetyl)-piperazin-1-yl]-benzonitrile]
7 | CS(=O)(=O)C1CCN(c2ncc(-c3cc(F)ccc3N3CCN(C(=O)Cn4c(=O)[nH]c5ccccc54)CC3)cn2)CC1 [1-{2-[4-(4-fluoro-2-{2-[4-(methylsulfonyl)piperidin-1-yl]pyrimidin-5-yl}phenyl)piperazin-1-yl]-2-oxoethyl}-1,3-dihydro-2H-benzimidazol-2-one]
